Results on 59 sequences are retold here after the OligoGym collection.

These antisense oligonucleotides have a phosphorothioate backbone; sugars and methylation of C are not fully specified.
Note: test concentration or dose not given here.

The target in one series is ITGB3. Particulars: ASO.
CTTTAGAACGGATTTTCC showed a remaining target (mRNA or protein) (fraction of control) of at least 1.
Still for that read-out and setting: to TGTCCCATTTTGCTCTGG belongs 0.53; to ACCACATACAGGATGGAC, at least 1; to AGGCATCTGGGCAGGTGG, 0.9.
As for AGCTGCTGAGAGTCAGGC, the remaining target (mRNA or protein) (fraction of control) turned out to be 0.22.
In turn, AGATGCTGGTACATCCCC displayed a remaining target (mRNA or protein) (fraction of control) of 0.4.
As for TCAAACTTCTTACACTCC, the remaining target (mRNA or protein) (fraction of control) amounted to 0.54.
On to AGCTTCTCAGTCATCAGC, for which the remaining target (mRNA or protein) (fraction of control) amounted to 0.28.
GACTCCTGCAATCCTGGC yielded a remaining target (mRNA or protein) (fraction of control) of 0.53.
Still for that read-out and setting: to GCCAGCACAGTCACCCAG belongs at least 1; to TCACCGTGTCTCCAATCT, 0.53.
The same measure, in the same setting: to GTGATGAGGAGTTTCCAG belongs 0.98.
On the same count and under the same terms, to AGAGATTGACTACATTTT belongs 0.93; to CCACGGGCTTTATGGTAA, 0.63.
With ATGACTGCTTATCATTAA, the remaining target (mRNA or protein) (fraction of control) was at least 1.
Same read-out and setting: to GCCCCGAAGCCAATCCGC belongs at least 1.
On the same count and under the same terms, to CATTCCTCCAGCCAATCT belongs 0.6.
AAGCGGGTCACCTGGTCA had a remaining target (mRNA or protein) (fraction of control) of at least 1.
On the same count and under the same terms, to AAAGGCACAGGCAGCTCT belongs at least 1; to AGACAACTCTTCAGGGAG, 0.62.
Same read-out and setting: to TCACCCTCAAGCTAAGCA belongs at least 1; to CAATAAGGCAAATCTGAA, 0.77.
The same measure, in the same setting: to GCATCTCGTCCGCCTCCC belongs 0.44.
The sequence GTTCTGGATGCTCCACAG displayed a remaining target (mRNA or protein) (fraction of control) of 0.55.
On the same count and under the same terms, to TGTCACTACCAACATGAC belongs 0.32; to TCAGCTTGGGCCTGGCAG, 0.6; to CTTCCGTCCAATGCTATA, 0.96.
Same read-out and setting: to ACATACTGACATTCTCCC belongs at least 1; to AGAAGTCGTCACACTCGC, 0.72; to CACATTGACCACAGAGGC, 0.74.
Sequence GCATCCTTGCCAGTGTCC returned a remaining target (mRNA or protein) (fraction of control) of 0.47.
On the same count and under the same terms, to AGTCCTCCTCTGAGCACT belongs 0.55.
Same read-out and setting: to TCTCACTGAGGTAATGAA belongs 0.66.
The same measure, in the same setting: to ACACACACATAAACACAC belongs at least 1; to AAGGTAGACGTGGCCTCT, 0.71.
In the case of ACGACACAGTCATCCTCA, the remaining target (mRNA or protein) (fraction of control) is at least 1.
TCCTTCGGCCTGAGGGAG came in with a remaining target (mRNA or protein) (fraction of control) of 0.57.
On to ACTCACTGGGAACTCGAT, for which the remaining target (mRNA or protein) (fraction of control) is 0.66.
Same read-out and setting: to TGGATGGAGAAATTCTTC belongs 0.64; to GCCCATTGCTGGACATGC, at least 1.

The next series deals with MAP2K6. To be noted: ASO.
The sequence TTAGTCTCCAAGAATCAGTT registered a remaining target (mRNA or protein) (fraction of control) of 0.96.
Same read-out and setting: to CCTTTCGACTGAGACATTTT belongs at least 1; to GGAAATCGAAGGATGGCCAA, at least 1; to GACATTTTCCCCTTTCCTTT, 0.85.
On the same count and under the same terms, to CATTAGAAGGCTTGACGTCT belongs 0.67; to TCGACTGAGACATTTTCCCC, 0.8; to CTTGCCTTTCGACTGAGACA, 0.58.
On the same count and under the same terms, to CCCTAAAAGATGTGGTGATC belongs at least 1.
TTTCGACTGAGACATTTTCC showed a remaining target (mRNA or protein) (fraction of control) of at least 1.
Still for that read-out and setting: to GTTTCTCTTGACCGATGCAG belongs 0.55; to GCTCCAGGTCATCTGCCTTC, 0.65; to GCCATAAAAGGTGACAGTGA, 0.86.
On the same count and under the same terms, to CGCTGCTGAAGAAAGATGCG belongs 0.85; to TTTTCCCCTTTCCTTTGATG, at least 1.

The target of another series is SMAD2. Particulars: ASO.
GATAGTAAACAGTCCATA gave a remaining target (mRNA or protein) (fraction of control) of 0.5.
AAGTGCTTGGTATGGTAA yielded a remaining target (mRNA or protein) (fraction of control) of 0.43.
Same read-out and setting: to GTTTCTCCAACCCTCTGA belongs 0.2.
For the sequence CAGGTTCTGAGTAAGTAA, the remaining target (mRNA or protein) (fraction of control) was 0.54.
Still for that read-out and setting: to AGCTGCTTCTCCGCCGCC belongs 0.27.
